Measurements published in US7307082B2, “Heterocyclic derivatives as CRF antagonists” (Roche Palo Alto LLC, priority 2003, dated 2007).
pIC50, pKi: −log10 of the molar value.

What was measured:
CRF receptor = biological target: T1, CRF receptor (Homo sapiens, UniProt P34998); assay: CRF Receptor Binding Assay (competition with [125I]Tyr0-ovine CRF, IMR-32 cell membranes); details: Human IMR-32 neuroblastoma cell membranes
T1 construct: Cell membranes are prepared according the method of Dieterich and DeSouza (1996); endogenous in cells; host or cells: IMR-32 human neuroblastoma cells (membrane preparation)
T1 sequence (P34998 24-415): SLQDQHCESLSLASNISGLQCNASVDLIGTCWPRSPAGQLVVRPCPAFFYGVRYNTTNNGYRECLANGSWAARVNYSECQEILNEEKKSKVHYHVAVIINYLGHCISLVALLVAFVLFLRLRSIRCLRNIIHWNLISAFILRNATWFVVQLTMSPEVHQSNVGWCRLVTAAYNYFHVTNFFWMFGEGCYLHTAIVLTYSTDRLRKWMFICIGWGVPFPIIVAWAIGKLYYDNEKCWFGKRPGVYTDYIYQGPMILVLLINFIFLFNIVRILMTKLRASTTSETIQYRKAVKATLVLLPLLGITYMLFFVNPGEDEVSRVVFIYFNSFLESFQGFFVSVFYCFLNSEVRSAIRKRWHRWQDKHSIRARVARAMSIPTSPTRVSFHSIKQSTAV
Protocol: CRF Receptor Binding Assay
Human IMR-32 neuroblastoma cells are grown to 80% confluence in MEM medium containing 10% heat-inactivated FBS, 1 mM sodium pyruvate, and 0.1 mM nonessential amino acids. Cell membranes are prepared according the method of Dieterich and DeSouza (1996). The cells (˜5E+9) are resuspended in 10 volumes of wash buffer (5 mM Tris HCl, 10 mM MgCl2, 2 mM EGTA, pH 7.4 at RT), homogenized with a Polytron, and then centrifuged at 45,000 G for 20 min at 4° C. The membrane pellets are washed twice with wash buffer (45,000 G for 20 min at 4° C.) and then resuspended (50 mM Tris HCl, 10 mM MgCl2, 2 mM EGTA, pH 7.4 at RT). Protein concentration is determined using Pierce reagents and BSA as standard. Aliquots of 1-1.5 mL are stored at −80° C. until binding assay.
The competition binding assay is performed in a final volume of 250 μl, which contains assay buffer (50 mM Tris-HCl, 10 mM MgCl2, 2 mM EGTA, 0.2% BSA, 0.1 mM bacitracin and 100 kIU/mL aprotinin pH 7.2 at R.T.), 0.05 nM [^125I]Tyr^0-ovine CRF (Du Pont New England Nuclear), 50 μg of membrane protein, and test compound at various concentrations. Non-specific binding is determined with 1 uM hCRF. […] Unbound radioactivity is removed by four rapid washes (0.8 ml/well) with wash buffer. The radioactivity is quantified using a Packard TopCount. […]

SMILES | melting point | pIC50 (CRF receptor; 0.05 nM [125I]Tyr0-ovine CRF, 2 hr at 25° C.) | pKi (CRF receptor; pKi values are derived from pIC50 values)
CCCC(CCC)N1CCCc2c(C)nc(Nc3ccc(C(C)C)cc3Br)nc21.Cl | 182 to 184 °C | – | –
CCCC(CCC)N1CCCc2c(C)nc(N(CC)c3ccc(C(C)C)cc3Br)nc21.Cl | 201 to 205 °C | – | –
CCC(CC)N1CCc2c(C)nc(N(CC)c3c(C)cc(C)cc3C)nc21 [Cpd 2, Ethyl-[7-(1-ethyl-propyl)-4-meth-yl-6,7-dihydro-5H-pyr-rolo[2,3-d]pyrimidin-2-yl]-(2,4,6-tri-methyl-phenyl)-amine;compound with trifluoro-aceticacid] | – | 5.68 | 6.71
CCC(CC)N1C(=O)CCc2c(C)nc(Nc3ccc(C(C)C)cc3Br)nc21 [Cpd 113, 2-(2-Bromo-4-isopropyl-phenyl-amino)-8-(1-ethyl-propyl)-4-meth-yl-5,8-dihydro-6H-pyrido[2,3-d]py-rimidin-7-one] | 124 to 126 °C | – | –
CCCC(CCC)N1C(=O)CCc2c(C)nc(N(CC)c3ccc(C(C)C)cc3Br)nc21 [Cpd 117, 2-[(2-Bromo-4-isopropyl-phenyl)-eth-yl-amino]-4-methyl-8-(1-propyl-bu-tyl)-5,8-dihydro-6H-pyrido[2,3-d]py-rimidin-7-one] | 92 to 94 °C | – | –
